These results are taken from patent US20050004172A1, “Solid state forms of 5-(difluoro-methoxy)-2-((3,4-dimethoxy-2-pyridinyl)-methyl) sulfinyl]-1H-benzimidazole sodium aquo complexes” (Pliva-Istrazivacki Institut d.o.o., priority 2003, published 2005).

Data set [1] is described as follows: Solid-state form conversion under crushing or compressing. Format: physicochemical.
A short description of data set [2]: Solid-state stability under normal storage conditions. Format: physicochemical. As to conditions: typically, but not limited to, temperatures of about 20° C. to about 30° C., relative humidity of about 30% to about 60%.

For `COc1ccnc(C[S+]([O-])c2nc3ccc(OC(F)F)cc3[nH]2)c1OC` (centres unmarked) [Form A1, 5-(difluoromethoxy)-2-[[(3,4-dimethoxy-2-pyridinyl)methyl]sulfinyl]-1H-benzimidazole], in data set [1], the “conversion into other known solid-state forms of pantoprazole sodium” value is recorded as “does not convert”. The “stability under normal storage conditions” value (from here on “stability”) in data set [2] was “stable”.

As for `COc1ccnc(C[S+]([O-])c2nc3ccc(OC(F)F)cc3[nH]2)c1OC` (centres unmarked) [Form A2, 5-(difluoromethoxy)-2-[[(3,4-dimethoxy-2-pyridinyl)methyl]sulfinyl]-1H-benzimidazole], the “conversion into other known solid-state forms of pantoprazole sodium” value in data set [1] was “does not convert”. In data set [2], the “stability” value is recorded as “stable”.

For `COc1ccnc(C[S+]([O-])c2nc3ccc(OC(F)F)cc3[nH]2)c1OC` (centres unmarked) [Form A3, 5-(difluoromethoxy)-2-[[(3,4-dimethoxy-2-pyridinyl)methyl]sulfinyl]-1H-benzimidazole], the “conversion into other known solid-state forms of pantoprazole sodium” value in data set [1] is listed as “does not convert”. Besides, the “stability” value in data set [2] is “stable”.

Take `COc1ccnc(C[S+]([O-])c2nc3ccc(OC(F)F)cc3[nH]2)c1OC` (centres unmarked) [Form A4, 5-(difluoromethoxy)-2-[[(3,4-dimethoxy-2-pyridinyl)methyl]sulfinyl]-1H-benzimidazole]: the “conversion into other known solid-state forms of pantoprazole sodium” value in data set [1] is reported as “does not convert”. Further, the “stability” value in data set [2] is “stable”.
